Reference: patent US7638306B2, “Process of increasing cellular production of biologically active compounds” (Fermalogic, Inc., priority 2003, dated 2009)
Counter-ions that a name gives are not always drawn.

Key:
wild type A. erythreum = test: growth inhibition of wild type A. erythreum by kanamycin; format: cell-based, Aeromicrobium erythreum
[1] = tested on: A. erythreum mutants containing the aph1 gene; settings: aphI (aph1) gene from Tn903 expressed in A. erythreum
Excerpt: E. coli library of A. erythreum genomic DNA. The plasmid library was constructed in the A. erythreum integration vector pFL2082, a pUC19-derived vector containing the aphI gene from Tn903. […] Several different vector preparations were dephosphorylated with different concentrations of CIAP or SAP in order to obtain the highest ratio of white to blue colonies after ligation. […] To generate a library that represented in excess of 5-fold coverage of the chromosome (estimated A. erythreum genome size somewhere between 4-8 Mb, representing about 4,000-8,000 coding sequences), 100,000 white colonies were harvested into 25 pools. This large number of colonies was chosen based on the assumption that some genes will be disproportionately represented over others after selection in E. coli. The colonies were split among 25 pools (ca. 4,000 colonies/pool) to increase randomness. To determine the insert size of random plasmid isolates a total of 65 white colonies were analyzed by restriction analysis of their plasmid DNA. […] This library was designated A. erythreum genomic library or library 1.
To generate a gene replacement library we developed a rapid, simple visual screen that took advantage of the Kn^r phenotype of single crossover mutants and the Kn^s phenotype of gene replacement mutants. […]

SMILES | kanamycin concentration to which A. erythreum is sensitive (growth inhibited) (wild type A. erythreum) | kanamycin concentration up to which resistance is conferred with good growth [1]
NC[C@H]1O[C@H](O[C@H]2[C@H](O)[C@@H](O[C@H]3O[C@H](CO)[C@@H](O)[C@H](N)[C@H]3O)[C@H](N)C[C@@H]2N)[C@H](O)[C@@H](O)[C@@H]1O [Kanamycin sulfate] | ≥ 5 µg/mL | –
NC[C@H]1O[C@H](O[C@H]2[C@H](O)[C@@H](O[C@H]3O[C@H](CO)[C@@H](O)[C@H](N)[C@H]3O)[C@H](N)C[C@@H]2N)[C@H](O)[C@@H](O)[C@@H]1O [kanamycin] | ≥ 2 µg/mL | 10 to 15 µg/mL
